BindingDB's records for doi:10.1111/j.1476-5381.1996.tb15304.x (Smithkline Beecham Pharmaceuticals, 1996)

Columns and labels:
[1] = target: T1, 5-hydroxytryptamine receptor 3A (Rattus norvegicus, UniProt P35563)
T1 sequence (P35563 whole entry): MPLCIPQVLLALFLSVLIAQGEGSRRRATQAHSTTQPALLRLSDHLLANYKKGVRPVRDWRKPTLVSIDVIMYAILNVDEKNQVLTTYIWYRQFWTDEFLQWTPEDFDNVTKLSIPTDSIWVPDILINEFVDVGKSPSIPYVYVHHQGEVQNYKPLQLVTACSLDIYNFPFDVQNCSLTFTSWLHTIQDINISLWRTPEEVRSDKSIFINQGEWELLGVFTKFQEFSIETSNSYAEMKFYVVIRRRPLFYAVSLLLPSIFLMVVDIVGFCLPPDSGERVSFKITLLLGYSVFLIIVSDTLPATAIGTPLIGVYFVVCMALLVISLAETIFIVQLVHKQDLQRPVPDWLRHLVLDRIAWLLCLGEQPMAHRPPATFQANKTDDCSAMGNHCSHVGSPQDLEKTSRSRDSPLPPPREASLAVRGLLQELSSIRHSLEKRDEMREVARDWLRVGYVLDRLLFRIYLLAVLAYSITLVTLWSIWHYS

Histamine H2 receptor = Histamine H2 receptor (Mus musculus, UniProt P97292)
[2] = target: 5-hydroxytryptamine receptor 1D (Homo sapiens, UniProt P28221)
[3] = target: T2, Solute carrier family 22 member 1 (Rattus norvegicus, UniProt Q63089)
T2 sequence (Q63089 whole entry): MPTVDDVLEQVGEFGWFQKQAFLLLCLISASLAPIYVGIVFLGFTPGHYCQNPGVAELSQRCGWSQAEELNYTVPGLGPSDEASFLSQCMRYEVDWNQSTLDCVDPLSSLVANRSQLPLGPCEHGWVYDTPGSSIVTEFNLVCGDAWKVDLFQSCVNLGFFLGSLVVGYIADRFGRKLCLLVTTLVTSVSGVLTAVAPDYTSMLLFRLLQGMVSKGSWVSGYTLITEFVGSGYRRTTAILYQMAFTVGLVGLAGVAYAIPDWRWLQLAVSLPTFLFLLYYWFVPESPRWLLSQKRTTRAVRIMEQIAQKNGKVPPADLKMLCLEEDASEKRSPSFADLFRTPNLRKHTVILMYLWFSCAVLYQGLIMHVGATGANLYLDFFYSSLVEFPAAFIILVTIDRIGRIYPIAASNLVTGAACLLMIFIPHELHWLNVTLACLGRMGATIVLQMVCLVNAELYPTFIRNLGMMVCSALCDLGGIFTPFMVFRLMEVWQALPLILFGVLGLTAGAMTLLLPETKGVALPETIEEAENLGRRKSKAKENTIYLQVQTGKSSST

[4] = target: T3, Adrenergic alpha2 receptor (Mesocricetus auratus, UniProt Q60533)
T3 sequence (Q60533 whole entry): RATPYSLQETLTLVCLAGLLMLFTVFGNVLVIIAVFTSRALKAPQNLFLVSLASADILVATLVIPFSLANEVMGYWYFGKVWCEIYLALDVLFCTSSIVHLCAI

[5] = target: 5-hydroxytryptamine receptor 1B (Homo sapiens, UniProt P28222)
D(2) dopamine receptor = D(2) dopamine receptor (Homo sapiens, UniProt P14416)
[6] = target: T4, 5-hydroxytryptamine receptor 2C (Homo sapiens, UniProt P28335)
T4 sequence (P28335 whole entry): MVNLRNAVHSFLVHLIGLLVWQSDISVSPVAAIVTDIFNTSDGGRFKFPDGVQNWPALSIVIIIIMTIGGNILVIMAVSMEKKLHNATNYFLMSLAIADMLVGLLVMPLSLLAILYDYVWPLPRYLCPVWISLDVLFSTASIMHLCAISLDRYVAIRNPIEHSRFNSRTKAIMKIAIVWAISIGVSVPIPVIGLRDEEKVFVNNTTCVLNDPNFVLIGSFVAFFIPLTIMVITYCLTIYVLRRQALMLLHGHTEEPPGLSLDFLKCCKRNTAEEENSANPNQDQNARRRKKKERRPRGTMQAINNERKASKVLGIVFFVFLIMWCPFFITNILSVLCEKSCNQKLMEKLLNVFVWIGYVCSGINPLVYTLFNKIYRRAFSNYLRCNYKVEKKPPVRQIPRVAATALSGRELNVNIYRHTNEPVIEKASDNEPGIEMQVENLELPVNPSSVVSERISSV

[7] = target: 5-hydroxytryptamine receptor 4 (Rattus norvegicus, UniProt Q62758)
[8] = target: 5-hydroxytryptamine receptor 2A (Rattus norvegicus, UniProt P14842)
[9] = target: 5-hydroxytryptamine receptor 1E (Homo sapiens, UniProt P28566)
D(1A) dopamine receptor = D(1A) dopamine receptor (Homo sapiens, UniProt P21728)
[10] = target: T5, 5-hydroxytryptamine receptor 1F (Homo sapiens, UniProt P30939)
T5 sequence (P30939 whole entry): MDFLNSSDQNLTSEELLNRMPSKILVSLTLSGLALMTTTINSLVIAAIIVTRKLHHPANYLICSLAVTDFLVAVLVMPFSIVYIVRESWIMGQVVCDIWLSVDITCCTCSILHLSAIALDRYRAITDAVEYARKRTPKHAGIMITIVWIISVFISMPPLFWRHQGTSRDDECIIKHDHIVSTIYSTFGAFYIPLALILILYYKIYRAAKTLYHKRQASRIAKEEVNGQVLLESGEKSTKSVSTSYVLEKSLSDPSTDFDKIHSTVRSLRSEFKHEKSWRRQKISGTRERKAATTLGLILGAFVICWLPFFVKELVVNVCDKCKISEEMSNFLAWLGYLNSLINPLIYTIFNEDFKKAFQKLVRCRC

[11] = target: Beta-2 adrenergic receptor (Mus musculus, UniProt P18762)
D(4) dopamine receptor = target: T6, D(4) dopamine receptor (Homo sapiens, UniProt P21917)
T6 sequence (P21917 whole entry): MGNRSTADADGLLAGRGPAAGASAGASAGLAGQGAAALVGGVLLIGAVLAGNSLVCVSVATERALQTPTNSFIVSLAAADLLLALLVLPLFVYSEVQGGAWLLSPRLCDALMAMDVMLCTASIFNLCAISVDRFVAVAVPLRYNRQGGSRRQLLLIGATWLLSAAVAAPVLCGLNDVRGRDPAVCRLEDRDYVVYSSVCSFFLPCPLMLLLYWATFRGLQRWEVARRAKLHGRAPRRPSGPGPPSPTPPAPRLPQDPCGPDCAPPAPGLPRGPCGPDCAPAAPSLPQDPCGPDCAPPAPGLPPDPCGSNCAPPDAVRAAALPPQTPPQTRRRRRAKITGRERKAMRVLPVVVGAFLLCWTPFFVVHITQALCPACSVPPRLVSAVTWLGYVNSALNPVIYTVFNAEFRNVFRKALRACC

[12] = target: T7, 5-hydroxytryptamine receptor 2C (Rattus norvegicus, UniProt P08909)
T7 sequence (P08909 whole entry): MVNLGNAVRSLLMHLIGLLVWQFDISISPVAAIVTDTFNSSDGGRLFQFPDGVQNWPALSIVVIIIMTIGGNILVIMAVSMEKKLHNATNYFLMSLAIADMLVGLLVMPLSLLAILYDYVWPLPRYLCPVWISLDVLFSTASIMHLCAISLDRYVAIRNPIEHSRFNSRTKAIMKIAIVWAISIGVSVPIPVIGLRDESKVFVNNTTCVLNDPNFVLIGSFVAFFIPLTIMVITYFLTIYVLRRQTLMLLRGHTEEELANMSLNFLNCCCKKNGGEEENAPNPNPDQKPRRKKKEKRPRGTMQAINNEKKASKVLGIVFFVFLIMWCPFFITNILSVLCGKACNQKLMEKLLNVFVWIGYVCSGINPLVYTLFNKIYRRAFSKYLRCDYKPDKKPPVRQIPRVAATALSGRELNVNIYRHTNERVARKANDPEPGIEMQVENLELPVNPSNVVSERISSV

[13] = target: Beta-1 adrenergic receptor (Homo sapiens, UniProt P08588)
[14] = target: 5-hydroxytryptamine receptor 7 (Rattus norvegicus, UniProt P32305)
[15] = target: 5-hydroxytryptamine receptor 7 (Homo sapiens, UniProt P34969)
5-hydroxytryptamine receptor 7 (Homo sapiens, UniProt P34969), sequence (P34969 whole entry): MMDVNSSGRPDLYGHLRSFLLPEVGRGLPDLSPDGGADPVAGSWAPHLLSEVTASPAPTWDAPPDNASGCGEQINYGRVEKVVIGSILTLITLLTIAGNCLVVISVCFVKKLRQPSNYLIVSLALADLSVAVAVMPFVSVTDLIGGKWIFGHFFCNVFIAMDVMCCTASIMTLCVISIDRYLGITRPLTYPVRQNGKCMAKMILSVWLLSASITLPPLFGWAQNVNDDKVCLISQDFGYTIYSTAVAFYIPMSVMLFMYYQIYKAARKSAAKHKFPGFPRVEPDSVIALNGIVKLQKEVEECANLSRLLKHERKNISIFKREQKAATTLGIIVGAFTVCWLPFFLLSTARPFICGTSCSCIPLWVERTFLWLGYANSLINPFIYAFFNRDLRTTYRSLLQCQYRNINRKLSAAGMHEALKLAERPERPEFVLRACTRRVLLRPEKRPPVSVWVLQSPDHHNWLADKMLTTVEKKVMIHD

Histamine H2 receptor, sequence (P97292 whole entry): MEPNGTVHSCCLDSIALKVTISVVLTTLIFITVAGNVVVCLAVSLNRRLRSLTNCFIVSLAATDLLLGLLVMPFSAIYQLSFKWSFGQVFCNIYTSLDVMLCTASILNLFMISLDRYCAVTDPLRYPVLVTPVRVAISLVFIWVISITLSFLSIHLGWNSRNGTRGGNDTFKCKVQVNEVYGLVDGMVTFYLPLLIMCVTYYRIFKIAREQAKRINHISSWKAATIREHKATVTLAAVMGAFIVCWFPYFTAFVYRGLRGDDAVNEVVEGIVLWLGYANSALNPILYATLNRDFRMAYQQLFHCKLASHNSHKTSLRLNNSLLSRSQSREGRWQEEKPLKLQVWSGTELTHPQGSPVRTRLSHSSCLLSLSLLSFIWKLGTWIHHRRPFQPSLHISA
5-hydroxytryptamine receptor 1E, sequence (P28566 whole entry): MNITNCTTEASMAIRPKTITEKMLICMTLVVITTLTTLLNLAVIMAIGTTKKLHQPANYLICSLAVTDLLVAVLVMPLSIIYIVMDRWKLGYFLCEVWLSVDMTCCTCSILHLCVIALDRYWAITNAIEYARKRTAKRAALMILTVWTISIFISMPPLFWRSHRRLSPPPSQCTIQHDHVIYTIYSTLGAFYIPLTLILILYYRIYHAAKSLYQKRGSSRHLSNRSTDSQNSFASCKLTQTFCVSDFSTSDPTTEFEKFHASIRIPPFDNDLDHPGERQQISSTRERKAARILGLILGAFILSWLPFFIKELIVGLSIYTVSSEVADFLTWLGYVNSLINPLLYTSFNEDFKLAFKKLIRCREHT
5-hydroxytryptamine receptor 7 (Rattus norvegicus, UniProt P32305), sequence (P32305 whole entry): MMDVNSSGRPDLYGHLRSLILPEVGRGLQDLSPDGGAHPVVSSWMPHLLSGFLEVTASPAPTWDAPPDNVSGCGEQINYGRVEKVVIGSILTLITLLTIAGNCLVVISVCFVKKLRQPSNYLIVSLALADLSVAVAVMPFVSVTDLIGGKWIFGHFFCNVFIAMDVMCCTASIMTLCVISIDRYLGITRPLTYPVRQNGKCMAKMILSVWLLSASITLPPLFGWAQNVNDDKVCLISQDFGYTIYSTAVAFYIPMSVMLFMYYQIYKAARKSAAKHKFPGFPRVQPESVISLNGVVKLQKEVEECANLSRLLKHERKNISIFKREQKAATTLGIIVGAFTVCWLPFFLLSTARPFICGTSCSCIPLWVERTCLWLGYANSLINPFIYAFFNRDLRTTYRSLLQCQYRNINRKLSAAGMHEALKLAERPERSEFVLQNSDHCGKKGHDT
5-hydroxytryptamine receptor 1B, sequence (P28222 whole entry): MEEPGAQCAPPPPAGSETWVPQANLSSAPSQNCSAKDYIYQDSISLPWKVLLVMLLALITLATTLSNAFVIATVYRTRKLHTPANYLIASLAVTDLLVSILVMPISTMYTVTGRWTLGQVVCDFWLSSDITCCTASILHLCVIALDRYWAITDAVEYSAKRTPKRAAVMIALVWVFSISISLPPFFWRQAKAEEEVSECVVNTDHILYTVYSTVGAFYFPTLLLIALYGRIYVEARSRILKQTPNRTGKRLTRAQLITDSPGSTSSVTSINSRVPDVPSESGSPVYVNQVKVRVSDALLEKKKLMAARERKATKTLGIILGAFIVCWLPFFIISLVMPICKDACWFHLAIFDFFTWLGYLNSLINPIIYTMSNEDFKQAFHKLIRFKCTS
5-hydroxytryptamine receptor 4, sequence (Q62758 whole entry): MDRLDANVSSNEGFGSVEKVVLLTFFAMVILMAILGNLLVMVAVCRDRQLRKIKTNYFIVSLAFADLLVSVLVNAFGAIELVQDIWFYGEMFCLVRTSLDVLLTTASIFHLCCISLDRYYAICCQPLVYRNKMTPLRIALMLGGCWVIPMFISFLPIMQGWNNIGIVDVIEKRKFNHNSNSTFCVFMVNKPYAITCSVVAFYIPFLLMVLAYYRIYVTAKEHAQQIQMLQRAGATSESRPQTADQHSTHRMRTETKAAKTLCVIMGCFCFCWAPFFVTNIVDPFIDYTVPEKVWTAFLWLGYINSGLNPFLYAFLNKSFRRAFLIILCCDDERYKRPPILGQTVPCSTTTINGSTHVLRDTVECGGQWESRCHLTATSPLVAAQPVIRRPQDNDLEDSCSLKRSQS
Beta-2 adrenergic receptor, sequence (P18762 whole entry): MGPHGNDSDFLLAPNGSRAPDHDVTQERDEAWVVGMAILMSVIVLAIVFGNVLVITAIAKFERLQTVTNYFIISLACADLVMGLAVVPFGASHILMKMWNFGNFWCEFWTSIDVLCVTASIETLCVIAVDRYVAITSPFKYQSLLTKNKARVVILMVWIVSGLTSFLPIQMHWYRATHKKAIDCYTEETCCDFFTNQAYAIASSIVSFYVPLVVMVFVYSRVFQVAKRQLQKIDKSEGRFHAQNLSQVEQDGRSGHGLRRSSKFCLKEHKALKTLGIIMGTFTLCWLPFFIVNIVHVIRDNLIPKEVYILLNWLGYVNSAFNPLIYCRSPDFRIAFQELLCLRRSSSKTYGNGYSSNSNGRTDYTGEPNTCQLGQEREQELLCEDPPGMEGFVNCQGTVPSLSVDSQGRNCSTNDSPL
5-hydroxytryptamine receptor 2A, sequence (P14842 whole entry): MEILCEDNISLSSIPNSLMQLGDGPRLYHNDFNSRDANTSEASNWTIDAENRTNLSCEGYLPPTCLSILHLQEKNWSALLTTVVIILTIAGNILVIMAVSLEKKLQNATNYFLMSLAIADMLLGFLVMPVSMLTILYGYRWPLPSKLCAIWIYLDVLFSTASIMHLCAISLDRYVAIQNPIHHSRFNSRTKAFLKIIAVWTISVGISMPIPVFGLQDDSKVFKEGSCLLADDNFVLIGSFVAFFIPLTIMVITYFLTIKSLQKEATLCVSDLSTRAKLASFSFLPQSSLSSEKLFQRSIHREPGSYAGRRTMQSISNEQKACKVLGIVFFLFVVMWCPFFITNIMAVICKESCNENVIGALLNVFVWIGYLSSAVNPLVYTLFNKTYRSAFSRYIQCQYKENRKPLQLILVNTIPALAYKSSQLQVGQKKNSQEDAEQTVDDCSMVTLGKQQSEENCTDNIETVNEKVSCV
D(1A) dopamine receptor, sequence (P21728 whole entry): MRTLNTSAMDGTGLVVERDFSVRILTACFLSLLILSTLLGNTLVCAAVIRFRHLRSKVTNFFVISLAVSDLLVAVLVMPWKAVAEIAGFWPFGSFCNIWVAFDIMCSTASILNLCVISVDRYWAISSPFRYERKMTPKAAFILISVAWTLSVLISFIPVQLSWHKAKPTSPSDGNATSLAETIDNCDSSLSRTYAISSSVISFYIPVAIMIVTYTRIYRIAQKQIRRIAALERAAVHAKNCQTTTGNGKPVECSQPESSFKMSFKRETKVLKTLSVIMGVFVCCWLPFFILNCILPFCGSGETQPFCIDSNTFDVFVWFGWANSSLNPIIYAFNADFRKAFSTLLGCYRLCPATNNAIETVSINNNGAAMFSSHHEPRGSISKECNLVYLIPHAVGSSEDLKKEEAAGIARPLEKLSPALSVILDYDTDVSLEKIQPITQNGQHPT
D(2) dopamine receptor, sequence (P14416 whole entry): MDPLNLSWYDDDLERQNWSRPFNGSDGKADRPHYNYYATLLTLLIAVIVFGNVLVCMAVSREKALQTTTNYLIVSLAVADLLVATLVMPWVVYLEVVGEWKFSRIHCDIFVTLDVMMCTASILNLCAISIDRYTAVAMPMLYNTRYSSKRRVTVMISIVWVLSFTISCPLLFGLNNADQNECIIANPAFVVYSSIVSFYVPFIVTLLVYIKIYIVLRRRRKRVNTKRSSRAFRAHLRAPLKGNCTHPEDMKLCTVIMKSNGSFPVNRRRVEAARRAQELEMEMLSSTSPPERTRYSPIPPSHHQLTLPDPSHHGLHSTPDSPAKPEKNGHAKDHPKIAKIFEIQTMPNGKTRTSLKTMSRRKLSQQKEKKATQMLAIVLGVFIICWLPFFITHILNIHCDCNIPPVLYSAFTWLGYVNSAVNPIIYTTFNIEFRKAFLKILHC
Beta-1 adrenergic receptor, sequence (P08588 whole entry): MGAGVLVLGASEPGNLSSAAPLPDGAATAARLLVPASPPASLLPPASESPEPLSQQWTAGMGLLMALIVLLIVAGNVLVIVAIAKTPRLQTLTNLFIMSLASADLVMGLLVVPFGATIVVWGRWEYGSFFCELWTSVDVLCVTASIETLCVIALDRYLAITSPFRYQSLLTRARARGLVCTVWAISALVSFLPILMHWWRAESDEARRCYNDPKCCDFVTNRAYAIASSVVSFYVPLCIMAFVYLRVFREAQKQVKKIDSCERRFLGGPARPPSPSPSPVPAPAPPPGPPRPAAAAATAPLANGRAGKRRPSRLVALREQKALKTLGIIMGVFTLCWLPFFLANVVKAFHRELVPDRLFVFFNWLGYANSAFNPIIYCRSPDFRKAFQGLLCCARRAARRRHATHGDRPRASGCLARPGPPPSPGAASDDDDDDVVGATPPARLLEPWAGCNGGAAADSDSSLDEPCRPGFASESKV

CC(N)Cc1c[nH]c2ccc(OCc3cccs3)cc12 (centres undefined) [NSC_5311036]
Ki [1]: 0.316 µM
Ki (Histamine H2 receptor): > 10 µM
Ki [2]: 0.631 µM
Ki [3]: > 10 µM
Ki [4]: > 10 µM
Ki [5]: 0.126 µM
Ki (D(2) dopamine receptor): > 10 µM
Ki [6]: 0.501 µM
Ki [7]: > 10 µM
Ki [8]: 0.251 µM
Ki [9]: 3.16 µM
Ki (D(1A) dopamine receptor): > 10 µM
Ki [10]: 7.94 µM
Ki [11]: > 10 µM
Ki (D(4) dopamine receptor): > 10 µM
Ki [12]: 0.126 µM
Ki [13]: > 10 µM
Ki [14]: 1 µM
Ki [15]: 3.16 µM
